Experimental data taken from patent US20220220128A1, “HETEROCYCLIC COMPOUNDS AS KINASE INHIBITORS, COMPOSITIONS COMPRISING THE HETEROCYCLIC COMPOUND, AND METHODS OF USE THEREOF” (JS Innopharm (Shanghai) Ltd, priority 2019, published 2022).
Read-outs that look alike come from different tables or passages of the source.

How the values were obtained:
[1] = molecular target: T1, human KDR kinase (Homo sapiens, UniProt P35968); assay: KDR Kinase Assay (LanthaScreen TR-FRET enzymatic assay); assay type: biochemical; settings: 1.2 nM KDR, 92 μM ATP
T1 construct: purchased Carna 08-191
Summary of the method: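 TR-FRET enzymatic format: after 15-min room-temperature compound pretreatment, 1.2 nM human KDR phosphorylated 3 μM FAM-P22 with 92 μM ATP (HEPES pH 7.5, 28° C., one hour). Reactions were quenched with EDTA buffer. IC50 came from nonlinear sigmoid fits of percent-of-vehicle signal ratios.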

[2] = tested on: TT cells; assay: TT Cell Proliferation Assay (WST-8, 8 days); assay type: cell-based; settings: growth inhibition in TT cells, read-out: TT Cellular Activity
Experimental: Compounds disclosed herein were tested for the inhibition of RET by a cancer cell proliferation assay commonly known as MTT assay. In this assay, a complete media was prepared by adding 10% fetal bovine serum to RPMI-1640 medium (Life technology). TT cells were added to each of 88 wells of a 96 well plate at a seeding density of 6,000 cells/well/90 μL. The cells were allowed to attach to the plate by incubating at 37° C. for 24 hours. The compound was dissolved in DMSO (SIGMA). A solution of test compound was prepared in complete media by serial dilution to obtain the following concentrations: 50 μM, 15 μM, 5 μM, 1.5 μM, 0.5 μM, 0.15 μM, 0.05 μM, 0.015 μM and 0.005 μM. The test compound solution (10 μL) was added to each of 80 cell-containing wells. The final concentrations of the compound were following: 5 μM, 1.5 μM, 0.5 μM, 0.15 μM, 0.05 μM, 0.015 μM, 0.005 μM, 0.0015 μM and 0.0005 μM. The final concentration of DMSO is 0.5%. To the 8 remaining cell-containing wells, only complete media (containing 0.5% DMSO) was added to form a control group in order to measure maximal proliferation. To the remaining 8 empty wells, complete media was added to for a vehicle control group in order to measure background. The plates were incubated at 37° C. for 8 days. 10 μL WST-8 solution (DOJINDO, Cell Counting KIT-8) was added to each well. The plates were further incubated at 37° C. for 5 hours, and then read for the absorbance using a microplate reader at 450 nm. The IC50 was calculated using GraphPad Prism.

[3] = molecular target: T2, human RET kinase (Homo sapiens, UniProt P07949); assay: RET Kinase Assay (LanthaScreen TR-FRET enzymatic assay); assay type: biochemical; settings: 7 nM RET, 23 μM ATP
T2 construct: purchased Carna 08-159
Summary of the method: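 TR-FRET enzymatic read-out using 23 μM ATP, 3 μM FAM-P2 substrate and 7 nM human RET, after 15-min compound pretreatment at room temperature and a 1 h reaction at 28° C in HEPES pH 7.5 buffer. Percent of DMSO control fitted to nonlinear sigmoid curves for IC50.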

T1 sequence (P35968 20-1356): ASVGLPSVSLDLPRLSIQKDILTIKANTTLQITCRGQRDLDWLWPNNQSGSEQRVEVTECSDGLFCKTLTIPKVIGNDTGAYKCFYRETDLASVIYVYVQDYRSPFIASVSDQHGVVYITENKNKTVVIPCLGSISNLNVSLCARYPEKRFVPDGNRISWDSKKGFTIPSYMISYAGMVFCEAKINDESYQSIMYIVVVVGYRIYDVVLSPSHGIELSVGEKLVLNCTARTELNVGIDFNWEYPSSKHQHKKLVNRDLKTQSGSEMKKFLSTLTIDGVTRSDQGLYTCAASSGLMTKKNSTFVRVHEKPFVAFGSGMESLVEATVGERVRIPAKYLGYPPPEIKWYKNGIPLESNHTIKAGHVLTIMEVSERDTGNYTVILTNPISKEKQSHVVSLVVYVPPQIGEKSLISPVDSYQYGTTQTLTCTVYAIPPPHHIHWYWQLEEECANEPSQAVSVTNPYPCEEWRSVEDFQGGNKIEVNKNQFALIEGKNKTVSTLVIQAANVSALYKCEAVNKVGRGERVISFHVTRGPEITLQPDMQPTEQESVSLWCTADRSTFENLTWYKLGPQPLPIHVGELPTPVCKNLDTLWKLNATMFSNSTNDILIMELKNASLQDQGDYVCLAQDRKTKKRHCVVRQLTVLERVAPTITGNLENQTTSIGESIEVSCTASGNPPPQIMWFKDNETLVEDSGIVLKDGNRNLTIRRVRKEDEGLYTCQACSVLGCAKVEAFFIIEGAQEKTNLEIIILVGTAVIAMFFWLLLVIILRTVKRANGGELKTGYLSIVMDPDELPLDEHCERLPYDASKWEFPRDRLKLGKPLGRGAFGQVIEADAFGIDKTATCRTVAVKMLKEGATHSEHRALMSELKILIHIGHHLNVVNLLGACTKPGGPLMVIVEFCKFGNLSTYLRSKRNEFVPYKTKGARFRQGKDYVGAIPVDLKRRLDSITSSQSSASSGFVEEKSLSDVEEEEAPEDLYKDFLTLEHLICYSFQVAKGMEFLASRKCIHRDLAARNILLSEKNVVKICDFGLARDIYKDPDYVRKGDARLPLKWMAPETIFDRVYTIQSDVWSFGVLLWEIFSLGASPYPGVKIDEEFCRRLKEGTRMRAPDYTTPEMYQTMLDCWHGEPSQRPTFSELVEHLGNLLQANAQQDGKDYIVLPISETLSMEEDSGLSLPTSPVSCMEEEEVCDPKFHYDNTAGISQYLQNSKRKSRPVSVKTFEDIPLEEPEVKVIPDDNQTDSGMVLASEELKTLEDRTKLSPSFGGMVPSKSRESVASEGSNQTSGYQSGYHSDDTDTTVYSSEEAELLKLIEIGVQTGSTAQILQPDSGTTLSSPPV
T2 sequence (P07949 29-1114): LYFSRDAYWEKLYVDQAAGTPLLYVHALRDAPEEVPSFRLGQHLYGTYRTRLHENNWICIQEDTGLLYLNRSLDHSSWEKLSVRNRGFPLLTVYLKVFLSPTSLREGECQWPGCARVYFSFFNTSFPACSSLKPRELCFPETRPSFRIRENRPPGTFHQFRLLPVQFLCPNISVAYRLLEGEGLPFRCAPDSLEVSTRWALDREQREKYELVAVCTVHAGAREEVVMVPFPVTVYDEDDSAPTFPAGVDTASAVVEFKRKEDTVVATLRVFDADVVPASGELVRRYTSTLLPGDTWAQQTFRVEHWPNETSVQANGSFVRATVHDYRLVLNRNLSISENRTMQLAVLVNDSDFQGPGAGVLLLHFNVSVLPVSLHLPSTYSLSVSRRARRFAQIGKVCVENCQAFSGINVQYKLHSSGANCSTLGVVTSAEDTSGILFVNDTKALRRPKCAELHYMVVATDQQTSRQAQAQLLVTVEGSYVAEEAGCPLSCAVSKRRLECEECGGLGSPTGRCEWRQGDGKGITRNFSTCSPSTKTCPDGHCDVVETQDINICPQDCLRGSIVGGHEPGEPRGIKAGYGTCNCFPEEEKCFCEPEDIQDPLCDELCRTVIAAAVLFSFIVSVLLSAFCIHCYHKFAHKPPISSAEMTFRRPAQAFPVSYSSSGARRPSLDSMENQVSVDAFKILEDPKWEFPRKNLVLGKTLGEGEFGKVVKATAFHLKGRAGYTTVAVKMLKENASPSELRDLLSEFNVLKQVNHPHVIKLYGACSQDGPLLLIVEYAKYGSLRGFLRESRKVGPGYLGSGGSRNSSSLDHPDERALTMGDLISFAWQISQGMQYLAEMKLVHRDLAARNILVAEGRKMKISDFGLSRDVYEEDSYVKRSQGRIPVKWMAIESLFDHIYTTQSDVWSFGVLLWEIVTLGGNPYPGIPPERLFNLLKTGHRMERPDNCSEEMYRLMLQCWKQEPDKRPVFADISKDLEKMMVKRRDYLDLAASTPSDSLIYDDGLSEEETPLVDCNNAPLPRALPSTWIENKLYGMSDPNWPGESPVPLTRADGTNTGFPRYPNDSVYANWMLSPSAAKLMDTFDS

Q: With `CC(C)C(O)C(=O)N[C@H]1[C@@H]2CN(c3ccc(-c4cc(-c5cnn(C)c5)cn5ncc(C#N)c45)cc3)C[C@@H]21` (stereo partly drawn) [Example 16, N-((1R,5S,6s)-3-(4-(3-cyano-6-(1-methyl-1H-pyrazol-4-yl)pyrazolo[1,5-a]pyridin-4-yl)phenyl)-3-azabicyclo[3.1.0]hexan-6-yl)-2-hydroxy-3-methylbutanamide] as the compound, how does the IC50 [1] read?
A: 10 to 50 nM

Q: What about the IC50 ([2]; Homo sapiens, TT, 192 h) of the same compound?
A: 10 to 50 nM

Q: What about the IC50 [3] of the same compound?
A: ≤ 10 nM

Q: Which IC50 [1] does the source give for `Cn1cc(-c2cc(-c3ccc(N4C[C@@H]5[C@H](C4)[C@H]5NC(=O)C(N)c4ccccc4)nc3)c3c(C#N)cnn3c2)cn1` (stereo partly drawn) [Example 32, 2-amino-N-((1R,5S,6s)-3-(5-(3-cyano-6-(1-methyl-1H-pyrazol-4-yl)pyrazolo[1,5-a]pyridin-4-yl)pyridin-2-yl)-3-azabicyclo[3.1.0]hexan-6-yl)-2-phenylacetamide] here?
A: > 100 nM

Q: And the IC50 ([2]; Homo sapiens, TT, 192 h)?
A: ≤ 10 nM

Q: What about the IC50 [3] of the same compound?
A: ≤ 10 nM

Q: Which IC50 [1] does the source give for `Cn1cc(-c2cc(-c3ccc(N4C[C@@H]5[C@@H](CNC(=O)c6ncc(F)cc6Cl)[C@@H]5C4)nc3)c3c(C#N)cnn3c2)cn1` [Example 85, 3-chloro-N-(((1R,5S,6s)-3-(5-(3-cyano-6-(1-methyl-1H-pyrazol-4-yl)pyrazolo[1,5-a]pyridin-4-yl)pyridin-2-yl)-3-azabicyclo[3.1.0]hexan-6-yl)methyl)-5-fluoropicolinamide] here?
A: ≤ 10 nM

Q: And the IC50 ([2]; Homo sapiens, TT, 192 h)?
A: ≤ 10 nM

Q: And the IC50 [3]?
A: ≤ 10 nM

Q: For `CC(C)(O)COc1cc(-c2ccc(N3C[C@@H]4[C@@H](CNC(=O)c5ncccc5Cl)[C@@H]4C3)nc2)c2c(C#N)cnn2c1` [Example 95, 3-chloro-N-(((1R,5S,6s)-3-(5-(3-cyano-6-(2-hydroxy-2-methylpropoxy)pyrazolo[1,5-a]pyridin-4-yl)pyridin-2-yl)-3-azabicyclo[3.1.0]hexan-6-yl)methyl)picolinamide], which IC50 [1] is on record?
A: > 100 nM

Q: What about the IC50 ([2]; Homo sapiens, TT, 192 h) of the same compound?
A: 10 to 50 nM

Q: And the IC50 [3]?
A: ≤ 10 nM

Q: Which results are given for `Cn1ccc(-c2cc(-c3ccc(N4C[C@@H]5C[C@@](C)(NC(=O)c6c(F)cccc6Cl)C[C@@H]5C4)nc3)c3c(C#N)cnn3c2)n1` [Example 93, 2-chloro-N-((3aR,5s,6aS)-2-(5-(3-cyano-6-(1-methyl-1H-pyrazol-3-yl)pyrazolo[1,5-a]pyridin-4-yl)pyridin-2-yl)-5-methyloctahydrocyclopenta[c]pyrrol-5-yl)-6-fluorobenzamide]?
A: IC50 [1]: 10 to 50 nM; IC50 ([2]; Homo sapiens, TT, 192 h): 10 to 50 nM; IC50 [3]: ≤ 10 nM

Q: For `Cn1cc(-c2cc(-c3ccc(N4C[C@@H]5[C@H](C4)[C@H]5NC(=O)[C@H](O)c4ccccc4)nc3)c3c(C#N)cnn3c2)cn1` [Example 18, (R)-N-((1R,5S,6s)-3-(5-(3-cyano-6-(1-methyl-1H-pyrazol-4-yl)pyrazolo[1,5-a]pyridin-4-yl)pyridin-2-yl)-3-azabicyclo[3.1.0]hexan-6-yl)-2-hydroxy-2-phenylacetamide], which IC50 [1] is on record?
A: 10 to 50 nM

Q: And the IC50 ([2]; Homo sapiens, 192 h)?
A: 10 to 50 nM

Q: And the IC50 [3]?
A: ≤ 10 nM

Q: Which results are given for `CC(C)(O)COc1cc(-c2ccc(N3C[C@@H]4CN(S(=O)(=O)c5c(F)cccc5Cl)C[C@@H]4C3)nc2)c2c(C#N)cnn2c1` [Example 92, 4-(6-((3aR,6aS)-5-((2-chloro-6-fluorophenyl)sulfonyl)hexahydropyrrolo[3,4-c]pyrrol-2(1H)-yl)pyridin-3-yl)-6-(2-hydroxy-2-methylpropoxy)pyrazolo[1,5-a]pyridine-3-carbonitrile]?
A: IC50 [1]: 10 to 50 nM; IC50 ([2]; Homo sapiens, TT, 192 h): 10 to 50 nM; IC50 [3]: ≤ 10 nM

Q: Which results are given for `Cn1cc(-c2cc(-c3ccc(N4C[C@@H]5C[C@@](C)(NC(=O)c6ncccc6F)C[C@@H]5C4)nc3)c3c(C#N)cnn3c2)cn1` [Example 91, N-((3aR,5s,6aS)-2-(5-(3-cyano-6-(1-methyl-1H-pyrazol-4-yl)pyrazolo[1,5-a]pyridin-4-yl)pyridin-2-yl)-5-methyloctahydrocyclopenta[c]pyrrol-5-yl)-3-fluoropicolinamide]?
A: IC50 [1]: ≤ 10 nM; IC50 ([2]; Homo sapiens, TT, 192 h): ≤ 10 nM; IC50 [3]: ≤ 10 nM

Q: For `Cn1cc(-c2cc(-c3ccc(N4C[C@@H]5[C@@H](CNC(=O)c6ncccc6C(F)(F)F)[C@@H]5C4)nc3)c3c(C#N)cnn3c2)cn1` [Example 86, N-(((1R,5S,6s)-3-(5-(3-cyano-6-(1-methyl-1H-pyrazol-4-yl)pyrazolo[1,5-a]pyridin-4-yl)pyridin-2-yl)-3-azabicyclo[3.1.0]hexan-6-yl)methyl)-3-(trifluoromethyl)picolinamide], which IC50 [1] is on record?
A: 10 to 50 nM

Q: What about the IC50 [2] of the same compound?
A: ≤ 10 nM

Q: What about the IC50 [3] of the same compound?
A: ≤ 10 nM

Q: Which IC50 [1] does the source give for `COc1ccc(CN2C[C@@H]3CN(c4ccc(-c5cc(OCC(C)(C)O)cn6ncc(C#N)c56)cn4)C[C@@H]3C2)cn1` [Example 14, 6-(2-hydroxy-2-methylpropoxy)-4-(6-((3aR,6aS)-5-((6-methoxypyridin-3-yl)methyl)hexahydropyrrolo[3,4-c]pyrrol-2(1H)-yl)pyridin-3-yl)pyrazolo[1,5-a]pyridine-3-carbonitrile] here?
A: > 100 nM

Q: What about the IC50 ([2]; Homo sapiens, TT, 192 h) of the same compound?
A: 10 to 50 nM

Q: What about the IC50 [3] of the same compound?
A: ≤ 10 nM

Q: Which results are given for `COc1ccc(C(=O)N[C@H]2[C@@H]3CN(c4ccc(-c5cc(-c6cnn(C)c6)cn6ncc(C#N)c56)cc4)C[C@@H]32)cn1` [Example 15, N-((1R,5S,6s)-3-(4-(3-cyano-6-(1-methyl-1H-pyrazol-4-yl)pyrazolo[1,5-a]pyridin-4-yl)phenyl)-3-azabicyclo[3.1.0]hexan-6-yl)-6-methoxynicotinamide]?
A: IC50 [1]: 50 to 100 nM; IC50 ([2]; Homo sapiens, TT, 192 h): 10 to 50 nM; IC50 [3]: 10 to 50 nM

Q: What does the source list for `CC(C)CC(=O)N[C@H]1[C@@H]2CN(c3ccc(-c4cc(-c5cnn(C)c5)cn5ncc(C#N)c45)cn3)C[C@@H]21` [Example 25, N-((1R,5S,6s)-3-(5-(3-cyano-6-(1-methyl-1H-pyrazol-4-yl)pyrazolo[1,5-a]pyridin-4-yl)pyridin-2-yl)-3-azabicyclo[3.1.0]hexan-6-yl)-3-methylbutanamide]?
A: IC50 [1]: 10 to 50 nM; IC50 ([2]; Homo sapiens, TT, 192 h): 10 to 50 nM; IC50 [3]: ≤ 10 nM

Q: Which IC50 [1] does the source give for `CC(C)(O)COc1cc(-c2ccc(N3C[C@@H]4[C@H](C3)[C@@H]4NC(=O)c3ncccc3Cl)nc2)c2c(C#N)cnn2c1` [Example 44, 3-chloro-N-((1R,5S,6r)-3-(5-(3-cyano-6-(2-hydroxy-2-methylpropoxy)pyrazolo[1,5-a]pyridin-4-yl)pyridin-2-yl)-3-azabicyclo[3.1.0]hexan-6-yl)picolinamide] here?
A: > 100 nM

Q: And the IC50 ([2]; Homo sapiens, TT, 192 h)?
A: > 100 nM

Q: What about the IC50 [3] of the same compound?
A: 50 to 100 nM

Q: Which results are given for `CC(C)C(=O)N1C[C@@H]2CN(c3ccc(-c4cc(-c5cnn(C)c5)cn5ncc(C#N)c45)cn3)C[C@@H]2C1` [Example 10, 4-(6-((3aR,6aS)-5-isobutyrylhexahydropyrrolo[3,4-c]pyrrol-2(1H)-yl)pyridin-3-yl)-6-(1-methyl-1H-pyrazol-4-yl)pyrazolo[1,5-a]pyridine-3-carbonitrile]?
A: IC50 [1]: 10 to 50 nM; IC50 ([2]; Homo sapiens, TT, 192 h): 10 to 50 nM; IC50 [3]: ≤ 10 nM

Q: With `COc1ccc(CN[C@H]2[C@@H]3CN(c4ccc(-c5cc(-c6cnn(C)c6)cn6ncc(C#N)c56)cn4)C[C@@H]32)cn1` [Example 33, 4-(6-((1R,5S,6s)-6-(((6-methoxypyridin-3-yl)methyl)amino)-3-azabicyclo[3.1.0]hexan-3-yl)pyridin-3-yl)-6-(1-methyl-1H-pyrazol-4-yl)pyrazolo[1,5-a]pyridine-3-carbonitrile] as the compound, how does the IC50 [1] read?
A: 10 to 50 nM

Q: What about the IC50 ([2]; Homo sapiens, TT, 192 h) of the same compound?
A: 10 to 50 nM

Q: And the IC50 [3]?
A: ≤ 10 nM

Q: Which results are given for `COc1ccc(C(=O)N[C@]2(C)C[C@H]3CN(c4ccc(-c5cc(-c6cnn(C)c6)cn6ncc(C#N)c56)cn4)C[C@H]3C2)cn1` [Example 58, N-((3aR,5s,6aS)-2-(5-(3-cyano-6-(1-methyl-1H-pyrazol-4-yl)pyrazolo[1,5-a]pyridin-4-yl)pyridin-2-yl)-5-methyloctahydro-cyclopenta[c]pyrrol-5-yl)-6-methoxy-nicotinamide]?
A: IC50 [1]: ≤ 10 nM; IC50 ([2]; Homo sapiens, TT, 192 h): 10 to 50 nM; IC50 [3]: ≤ 10 nM

Q: What does the source list for `CC(C)(O)COc1cc(-c2ccc(N3C[C@@H]4C[C@@](C)(NC(=O)c5ncccc5C#N)C[C@@H]4C3)nc2)c2c(C#N)cnn2c1` [Example 127, 3-cyano-N-((3aR,5s,6aS)-2-(5-(3-cyano-6-(2-hydroxy-2-methylpropoxy)pyrazolo[1,5-a]pyridin-4-yl)pyridin-2-yl)-5-methyloctahydrocyclopenta[c]pyrrol-5-yl)picolinamide]?
A: IC50 [1]: > 100 nM; IC50 ([2]; Homo sapiens, TT, 192 h): 10 to 50 nM; IC50 [3]: ≤ 10 nM
